Reference: publication PMC7170330 (Journal of Enzyme Inhibition and Medicinal Chemistry, 2020)
Where “and” joins values, the source holds several entries; their conditions need not be identical. Equal values may be shown once. Read-outs that look alike come from different tables or passages of the source.

Columns and labels:
[1] = Cupric ion reducing assay (CUPRAC); details: 0.2 mg/mL; mean ± SD, n = 3
Procedure: The reduction capacity for cupric ions (Cu^2+) was determined by Cupric Ions Reducing Assay (CUPRAC) assay as previously described[47]^,[48]. A volume of 0.25 ml neocuproine (7.5 mM) in ethanol, 0.25 ml NH4Ac (1 M) and 0.25 ml CuCl2 (0.01 M) was mixed with sample at different amounts and standards.

[2] = ABTS radical cation scavenging activity; details: 0.2 mg/mL; mean ± SD, n = 3
Procedure: (§1) ABTS^•+ scavenging activity assay was performed according to Re method[51]^,[52]. The process of ABTS^•+ (2.0 mM) in water with potassium persulfate (K2S2O8) (2.45 mM) at room temperature in dark for 4 h. gave the ABTS cation radical. Dilution of ABTS^•+ was applied with sodium phosphate buffer (Na3PO4) (0.1 mol/l, pH 7.4) to measure the absorbance at 734 nm. The reactions of ABTS^•+ solution (1.0 ml) with samples solution in ethanol at different concentrations were performed. The inhibition was calculated at 734 nm for each concentration. The DPPH^• and ABTS^•+ free radical scavenging ability was calculated as the following equation: Radical scavenging activity (%) = [(Ac – As)/Ac] × 100. Where, Ac is the absorbance value of DPPH^• and ABTS^•+ before sample addition, while as is the absorbance value after sample addition.

[3] = Fe3+ reducing power (FRAP, modified Oyaizu method); details: 0.2 mg/mL; 700 nm; mean ± SD, n = 3
Procedure: The power by metal-reducing of novel synthesised sulphonamide derivatives were determined by modified Oyaizu method[45]^,[46]. Different amounts of derivatives in 1 ml of ethanol were mixed with 0.5 ml of phosphate buffer (0.2 M, pH 6.6) and 0.5 ml of 1% potassium ferricyanide (K3Fe(CN)6). After the mixtures were incubated at 50 °C for 20 min, trichloroacetic acid (0.5 ml, 10%) was added to each mixture and centrifuged (at 1,008 G for 10 min.). The upper layers of the resulting solutions (0.5 ml) were first mixed with distilled water (0.5 ml) and then FeCl3 (0.1 ml, 0.1%) in the given order. absorbances were measured at 700 nm.

[4] = DPPH free radical scavenging activity; details: 0.05 mg/mL; mean ± SD, n = 3
Procedure: The free radical scavenging activity of standard antioxidants and synthesised sulphonamide derivatives was measured by DPPH using the Blois method[49]^,[50] 0.1 mM solution of DPPH^• in ethanol was prepared and 1 ml of this solution was added to 3 ml of the samples solution in ethanol at different concentrations. These solutions were vortexed thoroughly and kept in the darkness for 30 min. The absorbance values of this final mixture were measured at 517 nm. The reduced absorbance of the reaction mixture indicates higher free radical scavenging activity.
as §1

hCA II = hCA II (Homo sapiens, UniProt P00918); assay: hCA II esterase activity inhibition (p-nitrophenylacetate); format: biochemical; details: for Ki: esterase activity, p-nitrophenylacetate substrate, Lineweaver-Burk, mean ± SD; for Selectivity index KI (hCA II/hCA I): ratio of KI values
hCA I = hCA I (Homo sapiens, UniProt P00915); assay: biochemical; details: esterase activity, p-nitrophenylacetate substrate, Lineweaver-Burk, mean ± SD
Chain of hCA I (P00915 whole entry): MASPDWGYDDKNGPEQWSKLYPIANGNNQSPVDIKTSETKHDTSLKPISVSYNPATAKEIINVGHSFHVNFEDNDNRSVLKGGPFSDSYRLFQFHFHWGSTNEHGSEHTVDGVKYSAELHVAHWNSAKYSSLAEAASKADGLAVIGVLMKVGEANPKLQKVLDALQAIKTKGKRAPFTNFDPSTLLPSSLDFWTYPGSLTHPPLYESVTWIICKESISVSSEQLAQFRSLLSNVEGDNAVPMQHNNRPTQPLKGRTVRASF

AChE = molecular target: T1, AChE (Electrophorus electricus, UniProt O42275); assay: biochemical; details: electric eel AChE, acetylthiocholine iodide/DTNB, 412 nm, mean ± SD
T1 construct: AChE activity isolated from electric eel (purchased); purchased; host or cells: isolated from electric eel
T1 sequence (O42275 24-633): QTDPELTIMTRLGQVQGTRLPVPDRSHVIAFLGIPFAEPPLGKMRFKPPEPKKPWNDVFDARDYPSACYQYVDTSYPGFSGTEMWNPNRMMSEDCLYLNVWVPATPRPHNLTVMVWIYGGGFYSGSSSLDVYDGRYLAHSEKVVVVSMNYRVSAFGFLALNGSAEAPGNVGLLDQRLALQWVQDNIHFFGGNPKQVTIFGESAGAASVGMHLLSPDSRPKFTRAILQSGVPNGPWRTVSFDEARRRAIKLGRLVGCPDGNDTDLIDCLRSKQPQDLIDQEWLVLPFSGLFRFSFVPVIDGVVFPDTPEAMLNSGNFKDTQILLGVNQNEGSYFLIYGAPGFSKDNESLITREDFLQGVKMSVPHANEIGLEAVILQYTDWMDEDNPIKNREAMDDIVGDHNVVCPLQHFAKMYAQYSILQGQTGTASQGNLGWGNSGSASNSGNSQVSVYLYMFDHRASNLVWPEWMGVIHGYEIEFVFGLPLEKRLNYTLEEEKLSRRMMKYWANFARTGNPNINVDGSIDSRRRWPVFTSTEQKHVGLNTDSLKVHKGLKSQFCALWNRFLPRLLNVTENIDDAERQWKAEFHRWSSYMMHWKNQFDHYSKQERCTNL
Procedure: AChE activity isolated from electric eel (purchased) was performed by a modified version of the Ellman method[63]. The measurement of AChE activity was performed using Acetylthiocholine (ATChI) iodide as the substrates and 5,5-Dithiobis(2-nitrobenzoic) acid (DTNB)[64]. The ATChI iodide as the substrates was monitored spectrophotometrically at 412 nm as in our previous assays[65]^,[66].

| SMILES | Cu2+ reducing ability [1] | ABTS radical scavenging activity [2] | Fe3+ reducing ability [3] | DPPH radical scavenging activity [4] | Ki (hCA II; read-out: KI hCA II) | Selectivity index KI (hCA II/hCA I) (hCA II) | Ki (hCA I; read-out: KI hCA I) | Ki (AChE; read-out: KI AChE) | Ki (hCA II; KI hCA II) | Ki (AChE; KI AChE) | Ki (hCA I; KI hCA I) |
| --- | --- | --- | --- | --- | --- | --- | --- | --- | --- | --- | --- |
| COc1ccc(O)c(C(C)(C)C)c1 [BHA, butylated hydroxyanisole, reference compound] | 2.28 ± 0.13 absorbance | 79.5 ± 6.1% | 1.23 ± 0.20 absorbance | 21.7 ± 1.9% | – | – | – | – | – | – | – |
| Cc1cc(C(C)(C)C)c(O)c(C(C)(C)C)c1 [BHT, butylated hydroxytoluene, reference compound] | 2.00 ± 0.11 absorbance | 98.9 ± 9.1% | 0.67 ± 0.01 absorbance | 47.0 ± 5.2% | – | – | – | – | – | – | – |
| NS(=O)(=O)c1cccc(N=Cc2cccc(Br)c2O)c1 [Compound 1, 3-((3-Bromo-2-hydroxybenzylidene)amino)benzenesulfonamide] | 0.22 ± 0.02 absorbance | 18.4 ± 2.0% | 0.15 ± 0.03 absorbance | 18.7 ± 1.5% | 16.4 ± 0.7 nM | 0.27 | 59.7 ± 0.1 nM | 24.3 ± 1 nM | – | – | – |
| NS(=O)(=O)c1cccc(N=Cc2cccc(Cl)c2O)c1 [Compound 2, 3-((3-Chloro-2-hydroxybenzylidene)amino)benzenesulfonamide] | 0.26 ± 0.04 absorbance | 15.1 ± 1.4% | 0.27 ± 0.02 absorbance | 8.2 ± 0.4% | 13.8 ± 0.1 nM | 0.21 | 66.6 nM and 66.5 nM | 21 nM | – | – | – |
| NS(=O)(=O)c1ccc(N=Cc2cccc(Br)c2O)cc1 [Compound 3, 4-((3-Bromo-2-hydroxybenzylidene)amino)benzenesulfonamide] | 0.28 ± 0.04 absorbance | 7.3 ± 0.6% | 0.11 ± 0.01 absorbance | 5.9 ± 0.4% | 26.3 ± 0.09 nM | 0.33 | 80.5 ± 1.5 nM | 34.9 ± 1.4 nM | – | – | – |
| NS(=O)(=O)c1ccc(N=Cc2cccc(Cl)c2O)cc1 [Compound 4, 4-((3-Chloro-2-hydroxybenzylidene)amino)benzenesulfonamide] | 0.24 ± 0.05 absorbance | 14.7 ± 0.9% | 0.33 ± 0.02 absorbance | 12.7 ± 0.9% | 79.3 ± 0.2 nM | 1.98 | 40.1 ± 0.6 nM | 27.9 ± 1.3 nM | – | – | – |
| NS(=O)(=O)c1cccc(NCc2cccc(Br)c2O)c1 [Compound 5, 3-((3-Bromo-2-hydroxybenzyl)amino)benzenesulfonamide] | 0.99 ± 0.07 absorbance | 76.8 ± 8.1% | 0.33 ± 0.03 absorbance | 1.9 ± 0.09% | 19.8 ± 1.2 nM | 0.38 | 52.1 ± 0.7 nM | 61.2 ± 4 nM | – | – | – |
| NS(=O)(=O)c1cccc(NCc2cccc(Cl)c2O)c1 [Compound 6, 3-((3-Chloro-2-hydroxybenzyl)amino)benzenesulfonamide] | 0.93 ± 0.07 absorbance | 77.7 ± 7.9% | 0.47 ± 0.06 absorbance | 9.2 ± 0.6% | 29.1 ± 0.3 nM | 0.29 | 101 ± 1.9 nM | 25.7 ± 1 nM | – | – | – |
| NS(=O)(=O)c1ccc(NCc2cccc(Br)c2O)cc1 [Compound 7, 4-((3-Bromo-2-hydroxybenzyl)amino)benzenesulfonamide] | 1.15 ± 0.08 absorbance | 74.5 ± 6.4% | 0.39 ± 0.04 absorbance | 4.2 ± 0.4% | – | 0.16 | 62.3 nM | – | 10.1 nM | 77 ± 9.3 nM | – |
| NS(=O)(=O)c1ccc(NCc2cccc(Cl)c2O)cc1 [Compound 8, 4-((3-Chloro-2-hydroxybenzyl)amino)benzenesulfonamide] | 0.80 ± 0.05 absorbance | 78.4 ± 7.7% | 0.33 ± 0.07 absorbance | 3.2 ± 0.6% | 62 nM and 61.9 nM | 1.93 | – | – | – | 31.4 ± 1.2 nM | 32.1 nM |
| Cc1c(C)c2c(c(C)c1O)CCC(C)(C(=O)O)O2 (stereo not shown) [Trolox, reference compound] | 1.81 ± 0.05 absorbance | 94.4 ± 9.0% | 1.27 ± 0.12 absorbance | 57.8 ± 6.8% | – | – | – | – | – | – | – |
